From ChEMBL document CHEMBL1697731, “Cheminformatics analysis of assertions mined from literature that describe drug-induced liver injury in different species” (Chem Res Toxicol, 2010)

Key:
[1] = tested on: Hepatotoxicity; experiment: Literature-mined compound from Fourches et al multi-species drug-induced liver injury (DILI) dataset, effect in humans; settings: human
[2] = tested on: Hepatotoxicity; experiment: Literature-mined compound from Fourches et al multi-species drug-induced liver injury (DILI) dataset, effect in non-rodents
[3] = tested on: Hepatotoxicity; experiment: Literature-mined compound from Fourches et al multi-species drug-induced liver injury (DILI) dataset, effect in rodents; settings: rodentia

Q: How did the Hepatotoxicity [1] turn out when `CC(=O)Nc1c(I)c(NC(C)=O)c(I)c(C(=O)[O-])c1I.[Na+]` [DIATRIZOATE SODIUM] was run?
A: The Hepatotoxicity was “no drug-induced liver injury reported”.

Q: And the Hepatotoxicity [2]?
A: The Hepatotoxicity was “no drug-induced liver injury reported”.

Q: What about the Hepatotoxicity [3] of the same compound?
A: Its Hepatotoxicity is “drug-induced liver injury reported”.

Q: `C[C@]12CC[C@@H]3c4ccc(OC(=O)N(CCCl)CCCl)cc4CC[C@H]3[C@@H]1CC[C@@H]2O` [ESTRAMUSTINE] was tested. Which Hepatotoxicity [1] did it give?
A: The Hepatotoxicity was “drug-induced liver injury reported”.

Q: And the Hepatotoxicity [2]?
A: Its Hepatotoxicity is “no drug-induced liver injury reported”.

Q: And the Hepatotoxicity [3]?
A: Its Hepatotoxicity is “no drug-induced liver injury reported”.

Q: Which results are given for `CC(c1ccc(Cl)c(Cl)c1)N1N=C(N)CC1=O` (stereo not given) [MUZOLIMINE]?
A: Hepatotoxicity [1]: drug-induced liver injury reported; Hepatotoxicity [2]: no drug-induced liver injury reported; Hepatotoxicity [3]: no drug-induced liver injury reported

Q: For `CC[C@]12C=CCN3CC[C@@]4(c5cc([C@@]6(C(=O)OC)C[C@@H]7C[C@@H](C(C)(F)F)CN(Cc8c6[nH]c6ccccc86)C7)c(OC)cc5N(C)[C@H]4[C@@](O)(C(=O)OC)[C@@H]1OC(C)=O)[C@@H]32` [VINFLUNINE], which Hepatotoxicity [1] is on record?
A: The Hepatotoxicity was “no drug-induced liver injury reported”.

Q: And the Hepatotoxicity [2]?
A: The Hepatotoxicity was “no drug-induced liver injury reported”.

Q: And the Hepatotoxicity [3]?
A: The Hepatotoxicity was “drug-induced liver injury reported”.

Q: With `CC(N)Cc1ccccc1` (stereo not given) [AMPHETAMINE] as the compound, how does the Hepatotoxicity [1] read?
A: The Hepatotoxicity was “drug-induced liver injury reported”.

Q: What about the Hepatotoxicity [2] of the same compound?
A: Its Hepatotoxicity is “no drug-induced liver injury reported”.

Q: What about the Hepatotoxicity [3] of the same compound?
A: Its Hepatotoxicity is “drug-induced liver injury reported”.

Q: Which Hepatotoxicity [1] does the source give for `O=C(OCC(COC(=O)c1cccnc1)(COC(=O)c1cccnc1)COC(=O)c1cccnc1)c1cccnc1` [NICERITROL] here?
A: The Hepatotoxicity was “no drug-induced liver injury reported”.

Q: And the Hepatotoxicity [2]?
A: Its Hepatotoxicity is “drug-induced liver injury reported”.

Q: And the Hepatotoxicity [3]?
A: The Hepatotoxicity was “no drug-induced liver injury reported”.

Q: With `CCCCCCCCCCCCS[C@H](C(=O)Nc1cc(C)c(O)c(C)c1C)c1ccccc1` [EFLUCIMIBE] as the compound, how does the Hepatotoxicity [1] read?
A: The Hepatotoxicity was “no drug-induced liver injury reported”.

Q: And the Hepatotoxicity [2]?
A: Its Hepatotoxicity is “drug-induced liver injury reported”.

Q: What about the Hepatotoxicity [3] of the same compound?
A: Its Hepatotoxicity is “no drug-induced liver injury reported”.

Q: How did the Hepatotoxicity [1] turn out when `CNC(=O)[C@@H](NC(=O)[C@H](CC(C)C)[C@H](O)C(=O)NO)C(C)(C)C` was run?
A: Its Hepatotoxicity is “no drug-induced liver injury reported”.

Q: And the Hepatotoxicity [2]?
A: Its Hepatotoxicity is “no drug-induced liver injury reported”.

Q: What about the Hepatotoxicity [3] of the same compound?
A: Its Hepatotoxicity is “drug-induced liver injury reported”.

Q: Which Hepatotoxicity [1] does the source give for `C[N+](C)(C)CCOC(N)=O.[Cl-]` [CARBACHOL] here?
A: Its Hepatotoxicity is “no drug-induced liver injury reported”.

Q: And the Hepatotoxicity [2]?
A: Its Hepatotoxicity is “no drug-induced liver injury reported”.

Q: And the Hepatotoxicity [3]?
A: The Hepatotoxicity was “drug-induced liver injury reported”.

Q: Which results are given for `OC1(c2ccc(Cl)cc2)c2ccccc2C2=NCCN21` (stereo not given) [MAZINDOL]?
A: Hepatotoxicity [1]: no drug-induced liver injury reported; Hepatotoxicity [2]: no drug-induced liver injury reported; Hepatotoxicity [3]: drug-induced liver injury reported

Q: `Cc1ncsc1CCCl` [CLOMETHIAZOLE] was tested. Which Hepatotoxicity [1] did it give?
A: The Hepatotoxicity was “drug-induced liver injury reported”.

Q: And the Hepatotoxicity [2]?
A: Its Hepatotoxicity is “no drug-induced liver injury reported”.

Q: What about the Hepatotoxicity [3] of the same compound?
A: Its Hepatotoxicity is “drug-induced liver injury reported”.

Q: How did the Hepatotoxicity [1] turn out when `CCCc1nc2c(C)cc(-c3nc4ccccc4n3C)cc2n1Cc1ccc(-c2ccccc2C(=O)O)cc1` was run?
A: Its Hepatotoxicity is “drug-induced liver injury reported”.

Q: What about the Hepatotoxicity [2] of the same compound?
A: Its Hepatotoxicity is “no drug-induced liver injury reported”.

Q: And the Hepatotoxicity [3]?
A: Its Hepatotoxicity is “drug-induced liver injury reported”.

Q: For `C=CCC1(C(C)C)C(=O)NC(=O)NC1=O` [APROBARBITAL], which Hepatotoxicity [1] is on record?
A: Its Hepatotoxicity is “no drug-induced liver injury reported”.

Q: And the Hepatotoxicity [2]?
A: The Hepatotoxicity was “no drug-induced liver injury reported”.

Q: And the Hepatotoxicity [3]?
A: Its Hepatotoxicity is “drug-induced liver injury reported”.

Q: `CC(C(=O)O)c1ccc2c(c1)[nH]c1ccc(Cl)cc12` (stereo not given) [CARPROFEN] was tested. Which Hepatotoxicity [1] did it give?
A: The Hepatotoxicity was “no drug-induced liver injury reported”.

Q: What about the Hepatotoxicity [2] of the same compound?
A: Its Hepatotoxicity is “drug-induced liver injury reported”.

Q: What about the Hepatotoxicity [3] of the same compound?
A: Its Hepatotoxicity is “no drug-induced liver injury reported”.

Q: Which Hepatotoxicity [1] does the source give for `OCCN1CCN(CCCN2c3ccccc3Sc3ccc(Cl)cc32)CC1` [PERPHENAZINE] here?
A: Its Hepatotoxicity is “no drug-induced liver injury reported”.

Q: What about the Hepatotoxicity [2] of the same compound?
A: Its Hepatotoxicity is “no drug-induced liver injury reported”.

Q: And the Hepatotoxicity [3]?
A: The Hepatotoxicity was “drug-induced liver injury reported”.
